Among the test systems are SF-268 CNS; SF-539 CNS; SK-MEL-28 melanoma; NCI/ADR-RES ovarian; U251 CNS; SK-MEL-5 melanoma; SF-295 CNS; UO-31 renal; NCI-H23 lung; COLO 205 colon; UACC-257 melanoma; UACC-62 melanoma; NCI-H226 lung; HT29 colon; EKVX NSCLC; DU-145 prostate; ACHN renal; MALME-3M melanoma; SN12C renal.
What all share (experiment): NCI tumour cell line growth inhibition, 48 h

The structures appear in SMILES notation.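 The compound was tested at five concentrations on cells cultured in 96-well plates, with a 48-hour exposure period. TGI: total growth inhibition.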

As to `CSC1=C(C(=O)Nc2ccc(C)cc2)C(N)=NC1=O`, the TGI in the test with SF-268 CNS, with SF-539 CNS, in the test on SK-MEL-28 melanoma, in the test on NCI/ADR-RES ovarian, in the test with U251 CNS and in the test with SK-MEL-5 melanoma was greater than 100 µM throughout. The TGI in the test on SF-295 CNS, in the test with UO-31 renal, with NCI-H23 lung, with COLO 205 colon, in the test on UACC-257 melanoma and with UACC-62 melanoma was greater than 100 µM throughout. Further, the TGI with NCI-H226 lung, in the test with HT29 colon, with EKVX NSCLC, in the test with DU-145 prostate and in the test on ACHN renal was greater than 100 µM throughout.
Consider `CC1(C)S[C@H](CN)N[C@H]1C(=O)OC(c1ccccc1)c1ccccc1`, for which the TGI in the test with SF-268 CNS is greater than 100 µM; with SK-MEL-28 melanoma, greater than 100 µM; in the test with NCI/ADR-RES ovarian, greater than 100 µM; in the test on U251 CNS, greater than 100 µM; in the test with SK-MEL-5 melanoma it was 31.4 µM; in the test with SF-295 CNS, greater than 100 µM. For the same compound, the TGI is 92.6 µM in the test with UO-31 renal; greater than 100 µM in the test on NCI-H23 lung; 33.8 µM with COLO 205 colon; 40.5 µM in the test with UACC-257 melanoma; 81.4 µM in the test on UACC-62 melanoma; greater than 100 µM in the test with NCI-H226 lung. For the same compound, the TGI is greater than 100 µM in the test with HT29 colon; 83.8 µM in the test on MALME-3M melanoma; greater than 100 µM in the test with EKVX NSCLC; greater than 100 µM with SN12C renal; greater than 100 µM in the test on DU-145 prostate; greater than 100 µM with ACHN renal.
Turning to `C[C@@H]1O[C@]2(O)[C@@H]3CCCN3S(=O)(=O)CCN2C1=O`, the TGI with SF-268 CNS, with SF-539 CNS, in the test on SK-MEL-28 melanoma, with U251 CNS, in the test on SK-MEL-5 melanoma and with SF-295 CNS was greater than 100 µM throughout. Also, the TGI with UO-31 renal, in the test on NCI-H23 lung, in the test with COLO 205 colon, in the test on UACC-257 melanoma, with UACC-62 melanoma and with NCI-H226 lung was greater than 100 µM each time. In addition, the TGI in the test with HT29 colon, with MALME-3M melanoma, with EKVX NSCLC, in the test on SN12C renal and in the test with ACHN renal was greater than 100 µM throughout.
Regarding `Clc1ccc(CCc2ccncn2)c(Cl)c1`, the TGI is greater than 100 µM in the test with SF-268 CNS; greater than 100 µM with SF-539 CNS; greater than 100 µM in the test on SK-MEL-28 melanoma; greater than 100 µM in the test with U251 CNS; 51.2 µM in the test with SK-MEL-5 melanoma; greater than 100 µM in the test with SF-295 CNS. The TGI is 94 µM in the test with UO-31 renal; greater than 100 µM in the test on NCI-H23 lung; greater than 100 µM with COLO 205 colon; greater than 100 µM in the test on UACC-257 melanoma; greater than 100 µM with UACC-62 melanoma; greater than 100 µM in the test on NCI-H226 lung. The TGI with HT29 colon, in the test with MALME-3M melanoma, in the test with EKVX NSCLC, with SN12C renal and with ACHN renal was greater than 100 µM throughout.
On to `O=C(N/N=C(/c1nc2ccc([N+](=O)[O-])cc2[nH]c1=O)C(O)c1ccc([N+](=O)[O-])cc1)c1ccncc1` (configuration not stated), for which the TGI in the test on SF-268 CNS, in the test on SF-539 CNS, in the test with SK-MEL-28 melanoma, in the test on U251 CNS, in the test on SK-MEL-5 melanoma and in the test on SF-295 CNS was greater than 100 µM each time. Also, the TGI with UO-31 renal, in the test on NCI-H23 lung, in the test with COLO 205 colon, in the test with UACC-257 melanoma, with UACC-62 melanoma and with NCI-H226 lung was greater than 100 µM throughout. Moreover, the TGI with HT29 colon, with MALME-3M melanoma, with EKVX NSCLC, in the test on SN12C renal and with ACHN renal was greater than 100 µM each time.
As to `C/C(=N\NC(=S)NC(CCC(=O)O)C(=O)O)c1cnccn1` (configuration not stated), the TGI in the test with SF-268 CNS, with SF-539 CNS, in the test with SK-MEL-28 melanoma, in the test with U251 CNS, in the test on SK-MEL-5 melanoma and in the test with SF-295 CNS was greater than 100 µM each time. The TGI in the test with UO-31 renal, with NCI-H23 lung, in the test on COLO 205 colon, with UACC-257 melanoma, in the test with UACC-62 melanoma and in the test on NCI-H226 lung was greater than 100 µM throughout. Further, the TGI in the test with HT29 colon, with MALME-3M melanoma, in the test on EKVX NSCLC, with SN12C renal and in the test on ACHN renal was greater than 100 µM throughout.
`CCOc1ccc(/C=C(\Cl)c2ccc(OC)cc2)cc1`: the TGI in the test on SF-268 CNS, in the test on SF-539 CNS, in the test with SK-MEL-28 melanoma, in the test on U251 CNS, with SK-MEL-5 melanoma and in the test on SF-295 CNS was greater than 100 µM each time. Moreover, the TGI in the test on UO-31 renal, with NCI-H23 lung, in the test on COLO 205 colon, with UACC-257 melanoma, with UACC-62 melanoma and in the test with NCI-H226 lung was greater than 100 µM each time. In addition, the TGI in the test on HT29 colon, in the test with MALME-3M melanoma, in the test with EKVX NSCLC, in the test with SN12C renal and in the test on ACHN renal was greater than 100 µM throughout.
On to `Cc1ccc(NC(=O)CSc2nnc(Cc3ccccc3)o2)cc1`, for which the TGI in the test with SF-268 CNS, in the test on SF-539 CNS, in the test with SK-MEL-28 melanoma, in the test on U251 CNS, with SK-MEL-5 melanoma and in the test on SF-295 CNS was greater than 100 µM each time. For the same compound, the TGI in the test with UO-31 renal, in the test with NCI-H23 lung, in the test with COLO 205 colon, in the test with UACC-257 melanoma, in the test on UACC-62 melanoma and in the test with NCI-H226 lung was greater than 100 µM throughout. Further, the TGI in the test on HT29 colon, in the test with MALME-3M melanoma, in the test with EKVX NSCLC, with SN12C renal and with ACHN renal was greater than 100 µM throughout.

The values above are taken from PubChem BioAssay (NCI).
